Here are results for two compounds from the NIST ThermoML archive (doi:10.1016/j.jct.2005.11.005).

Numbers after ± are expanded uncertainties.

Data set [1] is described as follows: Molar enthalpy of transition or fusion. Particulars: Crystal; DSC.
The conditions of data set [2]: DTA; for Normal melting temperature: Crystal.

For `O.O.OC[C@H]1O[C@H](O[C@H]2O[C@H](CO)[C@@H](O)[C@H](O)[C@H]2O)[C@H](O)[C@@H](O)[C@@H]1O` [D-(+)-trehalose dihydrate], the “Molar enthalpy of transition or fusion” value in data set [1] was 26.2 ± 0.669 kcal/mol. Moreover, the Normal melting temperature in data set [2] worked out at 99.10 ± 0.5 °C.

As for `OC[C@H]1O[C@H](O[C@H]2O[C@H](CO)[C@@H](O)[C@H](O)[C@H]2O)[C@H](O)[C@@H](O)[C@@H]1O` [α-trehalose], in data set [1], the “Molar enthalpy of transition or fusion” value was found to be 12.8 ± 0.669 kcal/mol. For the same compound, the Normal melting temperature in data set [2] worked out at 209.4 ± 0.5 °C. In data set [2] (Glass), the Glass transition temperature is 120.0 ± 2 °C.
